Relative viability data for 7 cell lines are collected here from the supplement of paper PMC10307832.

Common to all, as to assay: relative viability (nuclei count vs DMSO), 5 days (fraction); higher = more cells survive
Compound in the assay “Bexarotene + Navitoclax”: C=C(c1ccc(C(=O)O)cc1)c1cc2c(cc1C)C(C)(C)CCC2(C)C [Bexarotene] + CC1(C)CCC(c2ccc(Cl)cc2)=C(CN2CCN(c3ccc(C(=O)NS(=O)(=O)c4ccc(N[C@H](CCN5CCOCC5)CSc5ccccc5)c(S(=O)(=O)C(F)(F)F)c4)cc3)CC2)C1 [Navitoclax] (partner 0.5 µM)
The gist of the method: (§1)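 Lung cancer cell lines in 1536-well plates got either a single drug or a fixed anchor-drug dose together with five library-drug doses (not always all listed) in √10 steps, by pin tool, on the day after seeding. Nuclei were counted after 5 days, and relative viability is the treated-to-vehicle ratio of nuclei counts. Values are medians of duplicate plates.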

Compound in the assay “Bexarotene + Crizotinib”: C=C(c1ccc(C(=O)O)cc1)c1cc2c(cc1C)C(C)(C)CCC2(C)C [Bexarotene] + C[C@@H](Oc1cc(-c2cnn(C3CCNCC3)c2)cnc1N)c1c(Cl)ccc(F)c1Cl [Crizotinib] (partner 1 µM)
The gist of the method:
as §1

Compound in the assay “Bexarotene + Dasatinib”: C=C(c1ccc(C(=O)O)cc1)c1cc2c(cc1C)C(C)(C)CCC2(C)C [Bexarotene] + Cc1nc(Nc2ncc(C(=O)Nc3c(C)cccc3Cl)s2)cc(N2CCN(CCO)CC2)n1 [Dasatinib] (partner 0.075 µM)
The gist of the method: as §1

Compound in the assay “Bexarotene + Vorinostat”: C=C(c1ccc(C(=O)O)cc1)c1cc2c(cc1C)C(C)(C)CCC2(C)C [Bexarotene] + O=C(CCCCCCC(=O)Nc1ccccc1)NO [Vorinostat] (partner 1 µM)
The gist of the method:
as §1

As for NCI-H2023, the relative viability was determined as 0.991 with Bexarotene + Navitoclax (first compound 0.08 µM); 0.993 in the assay with Bexarotene + Navitoclax (first compound 0.253 µM); 0.921 in the assay with Bexarotene + Navitoclax (first compound 0.8 µM); 0.851 in the assay with Bexarotene + Navitoclax (first compound 2.53 µM); 0.729 with Bexarotene + Navitoclax (first compound 8 µM); 0.609 with Bexarotene + Crizotinib (first compound 0.08 µM). In addition, the relative viability with Bexarotene + Crizotinib (first compound 0.253 µM) stood at 0.591; in the assay with Bexarotene + Crizotinib (first compound 0.8 µM), 0.715; in the assay with Bexarotene + Crizotinib (first compound 2.53 µM) it was 0.624; with Bexarotene + Crizotinib (first compound 8 µM), 0.494; with Bexarotene + Dasatinib (first compound 0.08 µM) it was 0.628; in the assay with Bexarotene + Dasatinib (first compound 0.253 µM), 0.64. Also, the relative viability in the assay with Bexarotene + Dasatinib (first compound 0.8 µM) stood at 0.561; in the assay with Bexarotene + Dasatinib (first compound 2.53 µM), 0.522; in the assay with Bexarotene + Dasatinib (first compound 8 µM), 0.5; with Bexarotene + Vorinostat (first compound 0.08 µM) it was 0.644; in the assay with Bexarotene + Vorinostat (first compound 0.253 µM) it was 0.941; in the assay with Bexarotene + Vorinostat (first compound 0.8 µM), 0.619. For the same cell line, the relative viability with Bexarotene + Vorinostat (first compound 2.53 µM) was 0.57; in the assay with Bexarotene + Vorinostat (first compound 8 µM), 0.528.
As to COR-L 105, the relative viability with Bexarotene + Navitoclax (first compound 0.08 µM) stood at 0.715; in the assay with Bexarotene + Navitoclax (first compound 0.253 µM) it was 0.856; in the assay with Bexarotene + Navitoclax (first compound 0.8 µM) it was 0.882; with Bexarotene + Navitoclax (first compound 2.53 µM), 0.983; in the assay with Bexarotene + Navitoclax (first compound 8 µM) it was 0.617; with Bexarotene + Crizotinib (first compound 0.08 µM), 0.863. For the same cell line, the relative viability is 0.951 with Bexarotene + Crizotinib (first compound 0.253 µM); 0.88 with Bexarotene + Crizotinib (first compound 0.8 µM); 0.857 in the assay with Bexarotene + Crizotinib (first compound 2.53 µM); 0.699 with Bexarotene + Crizotinib (first compound 8 µM); 0.456 in the assay with Bexarotene + Dasatinib (first compound 0.08 µM); 0.363 with Bexarotene + Dasatinib (first compound 0.253 µM). In addition, the relative viability was determined as 0.354 in the assay with Bexarotene + Dasatinib (first compound 0.8 µM); 0.333 with Bexarotene + Dasatinib (first compound 2.53 µM); 0.495 with Bexarotene + Dasatinib (first compound 8 µM); 0.844 with Bexarotene + Vorinostat (first compound 0.08 µM); 0.896 with Bexarotene + Vorinostat (first compound 0.253 µM); 0.855 with Bexarotene + Vorinostat (first compound 0.8 µM). Also, the relative viability came to 0.874 in the assay with Bexarotene + Vorinostat (first compound 2.53 µM) and 0.927 in the assay with Bexarotene + Vorinostat (first compound 8 µM).
On to NCI-H1734, for which the relative viability in the assay with Bexarotene + Navitoclax (first compound 0.08 µM) is 0.804; with Bexarotene + Navitoclax (first compound 0.253 µM) it was 0.877; with Bexarotene + Navitoclax (first compound 0.8 µM), 0.795; with Bexarotene + Navitoclax (first compound 2.53 µM), 0.781; in the assay with Bexarotene + Navitoclax (first compound 8 µM), 0.815; with Bexarotene + Crizotinib (first compound 0.08 µM) it was 0.724. The relative viability amounted to 0.77 with Bexarotene + Crizotinib (first compound 0.253 µM); 0.65 with Bexarotene + Crizotinib (first compound 0.8 µM); 0.667 with Bexarotene + Crizotinib (first compound 2.53 µM); 0.646 with Bexarotene + Crizotinib (first compound 8 µM); 0.478 with Bexarotene + Dasatinib (first compound 0.08 µM); 0.484 with Bexarotene + Dasatinib (first compound 0.253 µM). The relative viability with Bexarotene + Dasatinib (first compound 0.8 µM) stood at 0.412; with Bexarotene + Dasatinib (first compound 2.53 µM) it was 0.411; in the assay with Bexarotene + Dasatinib (first compound 8 µM), 0.46; in the assay with Bexarotene + Vorinostat (first compound 0.08 µM) it was 0.779; in the assay with Bexarotene + Vorinostat (first compound 0.253 µM) it was 0.834; in the assay with Bexarotene + Vorinostat (first compound 0.8 µM) it was 0.808. Also, the values for the relative viability with Bexarotene + Vorinostat (first compound 2.53 µM) and with Bexarotene + Vorinostat (first compound 8 µM) were 0.65 and 0.657, respectively.
Consider NCI-H3122, for which the relative viability in the assay with Bexarotene + Navitoclax (first compound 0.08 µM) was 1.12; with Bexarotene + Navitoclax (first compound 0.253 µM) it was 1.11; with Bexarotene + Navitoclax (first compound 0.8 µM) it was 1.1; with Bexarotene + Navitoclax (first compound 2.53 µM), 1.01; with Bexarotene + Navitoclax (first compound 8 µM), 1.09; with Bexarotene + Crizotinib (first compound 0.08 µM) it was 0.238. For the same cell line, the relative viability with Bexarotene + Crizotinib (first compound 0.253 µM) amounted to 0.261; with Bexarotene + Crizotinib (first compound 0.8 µM), 0.233; with Bexarotene + Crizotinib (first compound 2.53 µM) it was 0.276; with Bexarotene + Crizotinib (first compound 8 µM) it was 0.337; in the assay with Bexarotene + Dasatinib (first compound 0.08 µM), 0.755; in the assay with Bexarotene + Dasatinib (first compound 0.253 µM) it was 0.959. The relative viability with Bexarotene + Dasatinib (first compound 0.8 µM) turned out to be 0.729; with Bexarotene + Dasatinib (first compound 2.53 µM), 0.768; with Bexarotene + Dasatinib (first compound 8 µM), 0.701; with Bexarotene + Vorinostat (first compound 0.08 µM) it was 1.17; with Bexarotene + Vorinostat (first compound 0.253 µM), 1; with Bexarotene + Vorinostat (first compound 0.8 µM) it was 1.01. The relative viability in the assay with Bexarotene + Vorinostat (first compound 2.53 µM) was 1.12; with Bexarotene + Vorinostat (first compound 8 µM), 1.11.
Consider CAL-12T, for which the relative viability stood at 1.14 in the assay with Bexarotene + Navitoclax (first compound 0.08 µM); 1.26 with Bexarotene + Navitoclax (first compound 0.253 µM); 1.39 with Bexarotene + Navitoclax (first compound 0.8 µM); 1.13 with Bexarotene + Navitoclax (first compound 2.53 µM); 1.02 with Bexarotene + Navitoclax (first compound 8 µM); 0.73 with Bexarotene + Crizotinib (first compound 0.08 µM). Also, the relative viability with Bexarotene + Crizotinib (first compound 0.253 µM) came to 0.608; in the assay with Bexarotene + Crizotinib (first compound 0.8 µM), 0.466; with Bexarotene + Crizotinib (first compound 2.53 µM) it was 0.564; with Bexarotene + Crizotinib (first compound 8 µM), 0.489; with Bexarotene + Dasatinib (first compound 0.08 µM), 0.296; with Bexarotene + Dasatinib (first compound 0.253 µM), 0.327. The relative viability with Bexarotene + Dasatinib (first compound 0.8 µM) came out at 0.332; with Bexarotene + Dasatinib (first compound 2.53 µM) it was 0.302; with Bexarotene + Dasatinib (first compound 8 µM), 0.271; with Bexarotene + Vorinostat (first compound 0.08 µM), 0.723; with Bexarotene + Vorinostat (first compound 0.253 µM) it was 0.837; with Bexarotene + Vorinostat (first compound 0.8 µM) it was 0.887. Also, the relative viability with Bexarotene + Vorinostat (first compound 2.53 µM) is 0.529; with Bexarotene + Vorinostat (first compound 8 µM) it was 0.655.
For the cell line HCC-78, the relative viability in the assay with Bexarotene + Navitoclax (first compound 0.08 µM) was 0.673; with Bexarotene + Navitoclax (first compound 0.253 µM) it was 0.714; with Bexarotene + Navitoclax (first compound 0.8 µM), 0.667; in the assay with Bexarotene + Navitoclax (first compound 2.53 µM), 0.644; with Bexarotene + Navitoclax (first compound 8 µM), 0.863; in the assay with Bexarotene + Crizotinib (first compound 0.08 µM) it was 0.317. The relative viability with Bexarotene + Crizotinib (first compound 0.253 µM) amounted to 0.308; with Bexarotene + Crizotinib (first compound 0.8 µM) it was 0.375; with Bexarotene + Crizotinib (first compound 2.53 µM), 0.305; with Bexarotene + Crizotinib (first compound 8 µM) it was 0.33; in the assay with Bexarotene + Dasatinib (first compound 0.08 µM) it was 0.402; with Bexarotene + Dasatinib (first compound 0.253 µM), 0.264. Moreover, the relative viability with Bexarotene + Dasatinib (first compound 0.8 µM) came out at 0.278; with Bexarotene + Dasatinib (first compound 2.53 µM), 0.33; in the assay with Bexarotene + Dasatinib (first compound 8 µM), 0.363; in the assay with Bexarotene + Vorinostat (first compound 0.08 µM) it was 0.425; in the assay with Bexarotene + Vorinostat (first compound 0.253 µM), 0.523; in the assay with Bexarotene + Vorinostat (first compound 0.8 µM), 0.513. Further, the relative viability was found to be 0.402 with Bexarotene + Vorinostat (first compound 2.53 µM) and 0.459 with Bexarotene + Vorinostat (first compound 8 µM).
For the cell line NCI-H2085, the relative viability in the assay with Bexarotene + Navitoclax (first compound 0.08 µM) was determined as 1.09; with Bexarotene + Navitoclax (first compound 0.253 µM), 1.13; with Bexarotene + Navitoclax (first compound 0.8 µM), 0.961; with Bexarotene + Navitoclax (first compound 2.53 µM), 0.949; in the assay with Bexarotene + Navitoclax (first compound 8 µM) it was 0.924; in the assay with Bexarotene + Crizotinib (first compound 0.08 µM) it was 0.863. The relative viability was 0.891 with Bexarotene + Crizotinib (first compound 0.253 µM); 0.831 with Bexarotene + Crizotinib (first compound 0.8 µM); 0.791 with Bexarotene + Crizotinib (first compound 2.53 µM); 0.74 in the assay with Bexarotene + Crizotinib (first compound 8 µM); 0.25 with Bexarotene + Dasatinib (first compound 0.08 µM); 0.2 with Bexarotene + Dasatinib (first compound 0.253 µM). Further, the relative viability with Bexarotene + Dasatinib (first compound 0.8 µM) was 0.19; with Bexarotene + Dasatinib (first compound 2.53 µM), 0.218; in the assay with Bexarotene + Dasatinib (first compound 8 µM) it was 0.241; with Bexarotene + Vorinostat (first compound 0.08 µM), 0.672; with Bexarotene + Vorinostat (first compound 0.253 µM), 0.804; with Bexarotene + Vorinostat (first compound 0.8 µM), 0.69. The figures for the relative viability in the assay with Bexarotene + Vorinostat (first compound 2.53 µM) and in the assay with Bexarotene + Vorinostat (first compound 8 µM) were 0.719 and 0.692, respectively.
